According to patent publication US20060069132A1, “Azolecarboxamide herbicides” (priority 2004, published 2006):

Key:
morningglory [1] = experiment: Test A pre-/postemergence herbicide test; format: in vivo, Ipomoea spp.
Summary of the method: (§1)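 Sandy loam soil given preemergence directed spray; plants at 2 to 10 cm, one- to two-leaf stage, sprayed to runoff postemergence, compounds in non-phytotoxic solvent with surfactant. Injury rated visually versus untreated controls after about ten greenhouse days, 0 (no effect) to 100 (complete control); dash means not tested.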

giant foxtail [2] = experiment: Test B pre-/postemergence herbicide test; format: in vivo, Setaria faberi; conditions: for Foxtail, Giant plant response rating: postemergence, visual rating, scale 0 (no effect) to 100 (complete control)
Summary of the method: (§2)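 Pre: seeds sown, then sprayed. Post: 1–4-leaf plants (2–18 cm) sprayed at the same time. Paddy: flooded, treated at 2-leaf stage. Formulation: non-phytotoxic solvent with surfactant. Greenhouse 13–15 days; visual 0–100 score relative to controls.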

velvetleaf [3] = experiment: Test B pre-/postemergence herbicide test; format: in vivo, Abutilon theophrasti; conditions: for Velvetleaf plant response rating: postemergence, visual rating, scale 0 (no effect) to 100 (complete control)
Summary of the method: as §2

cocklebur = experiment: Test B pre-/postemergence herbicide test; format: in vivo, Xanthium strumarium; conditions: for Cocklebur plant response rating: postemergence, visual rating, scale 0 (no effect) to 100 (complete control)
Summary of the method: (§3)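 Evaluation is visual, comparing treated with control plants on a scale where 0 means no effect and 100 means full control. Treatments were preemergence, or postemergence on seedlings 2–18 cm tall, and held 13–15 days in the greenhouse.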

barnyardgrass [4] = experiment: Test B flooded paddy test; format: in vivo, Echinochloa crus-galli; conditions: 1000 g ai/ha, visual rating, scale 0 to 100 (0 no effect, 100 complete control), 13 to 15 days
Summary of the method: (§4)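 Each value is a visual 0–100 response rating taken against controls 13 to 15 days after treatment in the greenhouse. Plants received formulated chemical postemergence at the 1- to 4-leaf stage or, in flooded paddy, at the 2-leaf stage.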

corn = experiment: Test B pre-/postemergence herbicide test; format: in vivo, Zea mays; conditions: for Corn plant response rating: postemergence, visual rating, scale 0 (no effect) to 100 (complete control)
Summary of the method: as §2

velvetleaf [5] = experiment: Test A pre-/postemergence herbicide test; format: in vivo, Abutilon theophrasti
Summary of the method: as §1

large crabgrass [6] = experiment: Test A pre-/postemergence herbicide test; format: in vivo, Digitaria sanguinalis
Summary of the method: as §1

pigweed = experiment: Test B pre-/postemergence herbicide test; format: in vivo, Amaranthus retroflexus; conditions: for Pigweed plant response rating: postemergence, visual rating, scale 0 (no effect) to 100 (complete control)
Summary of the method: as §2

wheat = experiment: Test B postemergence herbicide test; format: in vivo, Triticum aestivum; set-up: key to Wheat plant response rating: 0 = no effect, 100 = complete control; conditions: postemergence, visual rating, scale 0 (no effect) to 100 (complete control)
Summary of the method: (§5)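 Read-out: visual comparison with controls, scored 0 to 100, where 100 means complete control and 0 no effect. Formulated chemicals were applied postemergence to plants 2–18 cm tall (1- to 4-leaf), or to flooded-paddy plants at the 2-leaf stage, then held 13 to 15 days under glass.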

[7] = system: small flower umbrella sedge; experiment: Test B flooded paddy test; format: in vivo, Cyperus difformis; conditions: 1000 g ai/ha, visual rating, scale 0 to 100 (0 no effect, 100 complete control), 13 to 15 days
Summary of the method: as §4

wild oat = experiment: Test B postemergence herbicide test; format: in vivo, Avena fatua; conditions: postemergence, visual rating, scale 0 (no effect) to 100 (complete control)
Summary of the method: as §5

Surinam grass = experiment: Test B pre-/postemergence herbicide test; format: in vivo, Urochloa decumbens; conditions: for Surinam Grass plant response rating: postemergence, visual rating, scale 0 (no effect) to 100 (complete control)
Summary of the method: as §2

blackgrass = experiment: Test B postemergence herbicide test; format: in vivo, Alopecurus myosuroides; conditions: postemergence, visual rating, scale 0 (no effect) to 100 (complete control)
Summary of the method: as §4

redroot pigweed = experiment: Test A pre-/postemergence herbicide test; format: in vivo, Amaranthus retroflexus
Summary of the method: as §1

barnyardgrass [8] = experiment: Test B pre-/postemergence herbicide test; format: in vivo, Echinochloa crus-galli; conditions: for Barnyardgrass plant response rating: postemergence, visual rating, scale 0 (no effect) to 100 (complete control)
Summary of the method: as §3

rice [9] = experiment: Test B pre-/postemergence herbicide test; format: in vivo, Oryza sativa; conditions: preemergence
Summary of the method: as §2

rice [10] = experiment: Test B flooded paddy test; format: in vivo, Oryza sativa; conditions: 1000 g ai/ha, visual rating, scale 0 to 100 (0 no effect, 100 complete control), 13 to 15 days
Summary of the method: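 Plants grow to 1- to 4-leaf stage (2–18 cm) for postemergence spraying, or to 2-leaf stage for the paddy test. Formulated compound is applied. Greenhouse holding lasts 13–15 days. Response is scored visually relative to controls, 0 no effect to 100 complete control; a dash means no result.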

morningglory [11] = experiment: Test B pre-/postemergence herbicide test; format: in vivo, Ipomoea coccinea; conditions: for Morningglory plant response rating: postemergence, visual rating, scale 0 (no effect) to 100 (complete control)
Summary of the method: as §3

large crabgrass [12] = experiment: Test B pre-/postemergence herbicide test; format: in vivo, Digitaria sanguinalis; conditions: for Crabgrass, Large plant response rating: postemergence, visual rating, scale 0 (no effect) to 100 (complete control)
Summary of the method: as §2

ducksalad = experiment: Test B flooded paddy test; format: in vivo, Heteranthera limosa; conditions: 1000 g ai/ha, visual rating, scale 0 to 100 (0 no effect, 100 complete control), 13 to 15 days
Summary of the method: as §4

giant foxtail [13] = experiment: Test A pre-/postemergence herbicide test; format: in vivo, Setaria faberi
Summary of the method: as §1

lambsquarters = experiment: Test B pre-/postemergence herbicide test; format: in vivo, Chenopodium album; conditions: for Lambsquarters plant response rating: postemergence, visual rating, scale 0 (no effect) to 100 (complete control)
Summary of the method: as §2

barnyardgrass [14] = experiment: Test A pre-/postemergence herbicide test; format: in vivo, Echinochloa crus-galli
Summary of the method: as §1

[15] = Postemergence, 500 g ai/ha, 0 to 100 scale, 0 no effect, 100 complete control
[16] = Postemergence, 2000 g ai/ha, 0 to 100 scale, 0 no effect, 100 complete control
[17] = Preemergence, 2000 g ai/ha, visual rating, 0 to 100 scale (0 no effect, 100 complete control)
[18] = preemergence, 500 g ai/ha, visual injury, 0 to 100 scale (0 no effect, 100 complete control)
[19] = 125 g ai/ha, 0 = no effect, 100 = complete control, preemergence
[20] = 500 g ai/ha, visual rating 0-100, 0 no effect, 100 complete control, preemergence

Cc1nc(C(C)(C)C)sc1C(=O)Nc1cccc(C(=O)NCC(F)(F)F)c1 [Compound 201]
Morningglory plant response rating (morningglory [1]; [15]): 25
Plant response rating, Morningglory (morningglory [1]; [16]): 30
Morningglory plant response rating (morningglory [1]; [17]): 5
Morningglory plant response rating (morningglory [1]; [18]): 0
Foxtail, Giant plant response rating (0 to 100 scale) (giant foxtail [2]; [19]): 0
Plant response rating, Foxtail, Giant (giant foxtail [2]; [20]): 0
Foxtail, Giant plant response rating (giant foxtail [2]; 125 g ai/ha): 0
Foxtail, Giant plant response rating (giant foxtail [2]; 500 g ai/ha): 0
Velvetleaf plant response rating (0 to 100 scale) (velvetleaf [3]; [19]): 0
Plant response rating, Velvetleaf (velvetleaf [3]; [20]): 10
Velvetleaf plant response rating (velvetleaf [3]; 125 g ai/ha): 0
Velvetleaf plant response rating (velvetleaf [3]; 500 g ai/ha): 0
Cocklebur plant response rating (0 to 100 scale) (cocklebur; [19]): 0
Plant response rating, Cocklebur (cocklebur; [20]): 0
Cocklebur plant response rating (cocklebur; 125 g ai/ha): 10
Cocklebur plant response rating (cocklebur; 500 g ai/ha): 10
Barnyardgrass plant response rating (barnyardgrass [4]): 0
Corn plant response rating (0 to 100 scale) (corn; [19]): 0
Plant response rating, Corn (corn; [20]): 0
Corn plant response rating (corn; 125 g ai/ha): 10
Corn plant response rating (corn; 500 g ai/ha): 20
Velvetleaf plant response rating (velvetleaf [5]; [15]): 10
Plant response rating, Velvetleaf (velvetleaf [5]; [16]): 10
Velvetleaf plant response rating (velvetleaf [5]; [17]): 35
Velvetleaf plant response rating (velvetleaf [5]; [18]): 0
Crabgrass, Large plant response rating (large crabgrass [6]; [15]): 10
Plant response rating, Crabgrass, Large (large crabgrass [6]; [16]): 20
Crabgrass, Large plant response rating (large crabgrass [6]; [17]): 70
Crabgrass, Large plant response rating (large crabgrass [6]; [18]): 35
Pigweed plant response rating (0 to 100 scale) (pigweed; [19]): 0
Plant response rating, Pigweed (pigweed; [20]): 20
Pigweed plant response rating (pigweed; 125 g ai/ha): 10
Pigweed plant response rating (pigweed; 500 g ai/ha): 40
Wheat plant response rating (wheat; 125 g ai/ha): 0
Wheat plant response rating (wheat; 500 g ai/ha): 0
Sedge, Umbrella plant response rating [7]: 0
Oat, Wild plant response rating (wild oat; 125 g ai/ha): 10
Oat, Wild plant response rating (wild oat; 500 g ai/ha): 10
Surinam Grass plant response rating (0 to 100 scale) (Surinam grass; [19]): 0
Plant response rating, Surinam Grass (Surinam grass; [20]): 0
Surinam Grass plant response rating (Surinam grass; 125 g ai/ha): 0
Surinam Grass plant response rating (Surinam grass; 500 g ai/ha): 10
Blackgrass plant response rating (blackgrass; 125 g ai/ha): 0
Blackgrass plant response rating (blackgrass; 500 g ai/ha): 0
Pigweed plant response rating (redroot pigweed; [15]): 40
Plant response rating, Pigweed (redroot pigweed; [16]): 55
Pigweed plant response rating (redroot pigweed; [17]): 95
Pigweed plant response rating (redroot pigweed; [18]): 40
Barnyardgrass plant response rating (0 to 100 scale) (barnyardgrass [8]; [19]): 0
Plant response rating, Barnyardgrass (barnyardgrass [8]; [20]): 10
Barnyardgrass plant response rating (barnyardgrass [8]; 125 g ai/ha): 0
Barnyardgrass plant response rating (barnyardgrass [8]; 500 g ai/ha): 0
Rice plant response rating (0 to 100 scale) (rice [9]; 125 g ai/ha, 0 = no effect, 100 = complete control): 0
Plant response rating, Rice (rice [9]; 500 g ai/ha, visual rating 0-100, 0 no effect, 100 complete control): 0
Rice plant response rating (rice [10]): 0
Morningglory plant response rating (0 to 100 scale) (morningglory [11]; [19]): 0
Plant response rating, Morningglory (morningglory [11]; [20]): 10
Morningglory plant response rating (morningglory [11]; 125 g ai/ha): 0
Morningglory plant response rating (morningglory [11]; 500 g ai/ha): 30
Crabgrass, Large plant response rating (0 to 100 scale) (large crabgrass [12]; [19]): 0
Plant response rating, Crabgrass, Large (large crabgrass [12]; [20]): 60
Crabgrass, Large plant response rating (large crabgrass [12]; 125 g ai/ha): 0
Crabgrass, Large plant response rating (large crabgrass [12]; 500 g ai/ha): 10
Ducksalad plant response rating (ducksalad): 0
Foxtail, Giant plant response rating (giant foxtail [13]; [15]): 0
Plant response rating, Foxtail, Giant (giant foxtail [13]; [16]): 10
Foxtail, Giant plant response rating (giant foxtail [13]; [17]): 15
Foxtail, Giant plant response rating (giant foxtail [13]; [18]): 0
Lambsquarters plant response rating (0 to 100 scale) (lambsquarters; [19]): 0
Plant response rating, Lambsquarters (lambsquarters; [20]): 30
Lambsquarters plant response rating (lambsquarters; 125 g ai/ha): 40
Lambsquarters plant response rating (lambsquarters; 500 g ai/ha): 40
Barnyardgrass plant response rating (barnyardgrass [14]; [15]): 10
Plant response rating, Barnyardgrass (barnyardgrass [14]; [16]): 20
Barnyardgrass plant response rating (barnyardgrass [14]; [17]): 50
Barnyardgrass plant response rating (barnyardgrass [14]; [18]): 0
